These results are taken from patent US11254700B2, “GSK-3β inhibitors and use thereof in methods of treatment” (UNIVERSITY OF HAWAII, priority 2017, dated 2022).

“And” between values parts separate entries of the source, which are not always exact repeats. Identical values can stand only once. “Also recorded” adds a separate entry of the source. Like-named read-outs stand apart in the source and are kept apart here. Some results are limits rather than exact numbers.

Data set [1] is described as follows: PAMPA passive membrane permeability. How it is done: Samples were run in quadruplicate.
Oral administration is noninvasive and is preferred for chronical diseases such as Alzheimer's disease and other CNS disorders. […] In the PAMPA model, the amount of target compounds diffused from a donor compartment to an acceptor compartment through a tri-layer phospholipid pre-coated membrane are measured to assess oral-absorption potential of drug candidates. In the present study, 1, 4, 9, 17, 21 and 30 were evaluated with the PAMPA assay.
A general note: In PAMPA a lipid-coated filter parts donor from acceptor wells.

The target of data set [2] is T1, GSK-3β (Homo sapiens, UniProt P49841). Put plainly: Kinase luminescent assay (ADP-Glo), GSK-3β inhibition. The data set is classed as biochemical. The procedure:
Kinase Luminescent Assay.
Kinase inhibition was assessed with the ADP-Glo Kinase Assay. […] The reaction mixture was incubated for 1 hour at room temperature followed by the addition of the ADP-Glo′ reagents according to the manufacturer's protocol. The kinase inhibitor staurosporine was used at 1 μM as a reference control. Each data point was collected in quadruplicate of two independent experiments.
Target sequence in this assay (P49841 whole entry): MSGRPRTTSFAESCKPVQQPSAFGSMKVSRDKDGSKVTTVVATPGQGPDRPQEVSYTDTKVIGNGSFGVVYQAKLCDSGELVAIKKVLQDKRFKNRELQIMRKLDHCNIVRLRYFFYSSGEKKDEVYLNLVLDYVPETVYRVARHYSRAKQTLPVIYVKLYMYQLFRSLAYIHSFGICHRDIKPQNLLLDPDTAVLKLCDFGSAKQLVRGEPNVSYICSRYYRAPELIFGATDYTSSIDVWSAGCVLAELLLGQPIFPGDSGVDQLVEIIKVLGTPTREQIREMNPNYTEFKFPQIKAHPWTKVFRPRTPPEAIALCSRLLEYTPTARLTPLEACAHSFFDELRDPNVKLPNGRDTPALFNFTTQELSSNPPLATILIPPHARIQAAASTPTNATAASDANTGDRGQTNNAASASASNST

Data set [3] concerns the target T1, GSK-3β. The experiment in a line: Kinase selectivity profile, GSK-3β. The data set is classed as biochemical. The procedure: (§1) Kinase inhibition was assessed with the ADP-Glo Kinase Assay. For screening, 5 ng/μL of kinase was assayed in a reaction containing 50 ng/μL substrate, 40 mM Tris, pH 7.5, 20 mM MgCl2, 0.1 mg/mL bovine serum albumin, 50 μM dithiothreitol (DTT), 25 μM ATP, varying concentrations of test samples or 5% DMSO as vehicle. The reaction mixture was incubated for 1 hour at room temperature followed by the addition of the ADP-Glo′ reagents according to the manufacturer's protocol. The kinase inhibitor staurosporine was used at 1 μM as a reference control. Each data point was collected in quadruplicate of two independent experiments.
(§2) To assess kinase selectivity, compound 30 was screened against a panel of 41 human protein kinases of relevance to Alzheimer's disease and other CNS disorders (Martin, et al. (2013) Aging Res. Rev. 12:289-309). […] The exceptional selectivity of compound 30 to GSK-3β can effectively minimize risk of off-target effects.
Target sequence in this assay (P49841 whole entry): as above

Data set [4] concerns panel of 41 human protein kinases. The experiment in a line: Kinase selectivity profile, other kinases of the panel. It is filed as biochemical. The note with it: 5 μM. How it is done:
as §1, §2

The target in another data set is GSK-3α (Homo sapiens, UniProt P49840). Put plainly: Kinase selectivity profile, GSK-3α. It is filed as biochemical. How it is done:
as §1, §2

Data set [5] concerns GSK-3β-mediated tau phosphorylation (pS396) in SH-SY5Y lysate. Put plainly: Whole-cell lysate GSK-3β assay with human Tau pS396 ELISA. The data set is classed as biochemical. The procedure: Whole-Cell Lysate GSK-3β Assay.
The assay procedure was followed as described (Liang, et al. (2016) ACS Chem. Neurosci. 7:912-923). SH-SY5Y cells were washed with phosphate-buffered saline (PBS) and lysed with cell extraction buffer containing 10 mM Tris, pH 7.4, 100 mM NaCl, 1 mM EDTA, 1 mM EGTA, 1 mM NaF, 20 mM Na4P2O7, 2 mM Na3VO4, 1% Triton X-100, 10% glycerol, 0.1% sodium dodecyl sulfate (SDS), 0.5% sodium deoxycholate, 1 mM phenylmethanesulfonyl fluoride (PMSF) and a protease inhibitor cocktail. Lysate was diluted with kinase buffer (40 mM Tris, pH 7.5, 20 mM MgCl2, 50 μM DTT, 400 μM ATP) to afford a concentration of 5 μg/μL of total protein, and split into aliquots. Recombinant human GSK-3β was fortified into lysate aliquots to a final concentration of 0.25% (wt/wt) of total protein. A lysate aliquot fortified with heat-inactivated GSK-3β was used as a negative control. The fortified lysate aliquots were incubated with test sample or 5% DMSO vehicle at 37° C. for 2 hours followed by ELISA analysis.
The quantitative determination of phosphorylated human tau at GSK-3β specific pS396 site was conducted by taking 50 μL diluted cell lysate and using a specific antibody against human tau [pS396] in a sandwich ELISA according to the manufacturer's protocol. Tau phosphorylation was quantified by measuring the absorbance at 450 nm in a microtiter plate reader. The analysis was collected in quadruplicate of two independent experiments.
On the technique in general: In an ELISA, binding on a coated surface is turned into a signal by an enzyme label.

For data set [6], the target named is T1, GSK-3β. The experiment in a line: GSK-3β kinetics (Lineweaver-Burk), ATP or substrate GS2 competition. It is filed as biochemical. The settings on record: 30 at 0 to 5 μM. The procedure: To study GSK-3β kinetics, a reaction solution contained 5 ng/μL kinase, 40 mM Tris, pH 7.5, 20 mM MgCl2, 0.1 mg/mL BSA, 50 μM DTT, and varying concentrations of ATP or substrate GS2 (residues 636-662 of human muscle glycogen synthase) versus test samples. The mixture was incubated for 5, 15, 30, and 60 minutes at room temperature followed by the addition of the ADP-Glo′ reagents according to the manufacturer's protocol. The Lineweaver-Burk representation is derived from the double reciprocal plotting of the enzyme kinetic data.
Under a constant concentration of the substrate GS2 (17 μM), ATP concentrations varied from 2 to 50 μM and 30 concentrations varied from 0 to 5 μM. […] In the second set of experiments under a constant concentration of ATP (10 μM), substrate GS2 concentrations varied from 8 to 66 μM and 30 concentrations varied from 0 to 5 μM. […] The enzyme inhibitory behaviors of 30 are similar to that of the parent compound 1 (Liang, et al. (2016) ACS Chem. Neurosci. 7:912-923) and therefore confirm that the new analogues are indeed substrate-competitive inhibitors of GSK-3β.
Target sequence in this assay (P49841 whole entry): as above

Data set [7] concerns SH-SY5Y cells treated with Aβ42 oligomers. The experiment in a line: Anti-Aβ42 neurotoxicity assay. It is filed as cell-based, human. The procedure:
(§3) Human neuroblastoma SH-SY5Y cell line (Sigma-Aldrich, Saint Louis, Mo.) was cultured in DMEM/F12 (v/v 1:1) media supplemented with 2 mM glutamine, 10% heat-inactivated fetal bovine serum (FBS) and 1% antibiotics including penicillin and streptomycin. After reaching 70-80% confluence, cells were then subcultured on poly-L-lysine plates with 10 μM retinoic acid in a reduced serum media (1% FBS) to promote neuronal maturation and differentiation as described (Agholme, et al. (2010) J. Alzheimer's Dis. 20: 1069-1082). Cell cultures were incubated at 37° C. in a fully humidified atmosphere containing 5% CO2.
The toxic oligomers of Aβ42 were prepared as described (Liang, et al. (2016) ACS Chem. Neurosci. 7:912-923). Briefly, lyophilized Aβ42 peptide was dissolved in hexafluoroisopropanol, dried under vacuum, and stored at −20° C. Immediately prior to use, the peptide residue was reconstituted in DMEM/F12 media to make a stock solution at 0.1 mM and incubated at 4° C. for 24 hours to form diffusible oligomers. Aβ42 oligomers at a final concentration of 10 μM were assayed for cell viability.
(§4) SH-SY5Y cells were seeded at a density of 3×10^5 cells/mL in a 96-well plate in DMEM/F12 media containing 10 μM retinoic acid and 1% FBS to suppress cell proliferation. Cells were incubated under regular culture conditions for attachment. After 24 hours of plating, the cells were pretreated with different concentrations of test samples or the 0.2% DMSO as a vehicle control for 1 hour and then co-incubated with 10 μM Aβ42 for 72 hours. After the experimental treatment, the cells were subject to a […]® 96 AQueous One Solution Cell Proliferation […] Assay according to the manufacturer's instruction. […] Each data point was collected in triplicate of two independent experiments.

The next data set relates to SH-SY5Y cells. Put plainly: Cytotoxicity in SH-SY5Y cells. The settings on record: 1000 μM. It is filed as cell-based, human. The procedure: as §3, §4
Data set [8] has as its target T1, GSK-3β. The note with it: background; cited from earlier work.
Target sequence in this assay (P49841 whole entry, species assumed): as the sequence (P49841 whole entry) above

GSK-3α, sequence (P49840 whole entry): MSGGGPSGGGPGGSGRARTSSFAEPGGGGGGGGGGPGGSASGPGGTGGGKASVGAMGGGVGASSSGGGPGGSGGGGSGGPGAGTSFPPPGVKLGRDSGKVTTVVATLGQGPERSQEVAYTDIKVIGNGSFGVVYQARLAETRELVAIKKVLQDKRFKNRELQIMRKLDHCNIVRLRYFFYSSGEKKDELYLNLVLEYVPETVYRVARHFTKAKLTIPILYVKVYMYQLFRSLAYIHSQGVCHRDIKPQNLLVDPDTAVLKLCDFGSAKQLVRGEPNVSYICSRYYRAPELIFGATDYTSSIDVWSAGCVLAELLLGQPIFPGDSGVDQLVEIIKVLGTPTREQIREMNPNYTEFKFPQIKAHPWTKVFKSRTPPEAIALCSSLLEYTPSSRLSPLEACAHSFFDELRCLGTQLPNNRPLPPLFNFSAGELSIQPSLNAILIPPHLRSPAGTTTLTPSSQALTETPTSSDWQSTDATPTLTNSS

Regarding `COc1ccc(-c2cc(=O)c3c(OC)c([C@@H]4O[C@H](C(=O)N[C@@H](C)C(F)(F)F)[C@@H](O)[C@H](O)[C@H]4O)c(OC)cc3o2)cc1OC` [Compound 30, (2S,3S,4R,5R,6S)-6-(2-(3,4-Dimethoxyphenyl)-5,7-dimethoxy-4-oxo-4H-chromen-6-yl)-3,4,5-trihydroxy-N—((S)-1,1,1-trifluoropropan-2-yl)tetrahydro-2H-pyran-2-carboxamide], in [1] (20 μM, pH 7.4, 5 hours), the “R (percent recovery)” value was 30%. In data set [1] (20 μM, pH 7.4, 5 hours, room temperature, mean ±SD), the Pe is on record as 2.23 ± 0.21 ×10^−6 cm/s. Moreover, the Permeability classification entry in data set [1] (PAMPA) is listed as “high (high (Pe > 1.5 × 10^−6 cm/s))”. Further, the “LiPE (pIC50−CLogP)” value at GSK-3β [2] is recorded as over 4. For the same compound, the IC50 on GSK-3β [2] (25 μM ATP, 1 hour, room temperature, mean of quadruplicate of two experiments, read-out: IC50 against GSK-3β) was < 20 µM and 0.59 µM. The “potency against GSK-3β relative to epimer 31” value on GSK-3β [2] (vs 31) is recorded as “about 4 fold”. The “increase of potency against GSK-3β relative to 1” value on GSK-3β [2] (vs isoorientin 1) came out at 310 fold. Also, the “specificity for GSK-3β versus GSK-3α” value at GSK-3β [3] (5 μM) was 12.3 fold. Besides, the inhibition at 5 µM on GSK-3β [3] (read-out: GSK-3β inhibition (decrease of kinase activity)) came out at 92.3%; against GSK-3α, 7.5%. In data set [4], the “inhibition of 40 out of 41 kinases of the test panel” value was “only marginal or weak inhibition”. For the same compound, in data set [5] (10 μM, TDZD-8 at the same concentration), the “inhibition of tau hyperphosphorylation compared to TDZD-8” value is on record as “better inhibition against tau hyperphosphorylation”. Further, in [5] (2, 10 and 50 μM, 2 hours, 37° C., lysate with 0.25% GSK-3β), the “GSK-3β-mediated tau hyperphosphorylation at pS396” value is listed as “effectively attenuated tau hyperphosphorylation in a dose-dependent manner; also recorded: attenuate GSK-3β-mediated tau phosphorylation”. Also, the “competition with substrate GS2” value on GSK-3β [6] (ATP 10 μM, GS2 8 to 66 μM) is on record as “competed with the substrate GS2”. The “competition with ATP” value at GSK-3β [6] (GS2 17 μM, ATP 2 to 50 μM) was “no competition between ATP and 30”. Besides, the “protection against Aβ42 neurotoxicity” value in [7] (1.25 to 20 μM, 10 μM Aβ42, 72 hours) is recorded as “neuroprotection in a dose-dependent manner; also recorded: alleviates Aβ42 induced neurotoxicity”. Further, the “improvement in effectiveness compared to parent compound” value in data set [7] (30 at 10 μM versus 1 at 200 μM) is given as about 20 fold. The EC50 in data set [7] (Homo sapiens, SH-SY5Y, 1 hour pretreatment, 10 μM Aβ42, 72 hours, read-out: neuroprotective potency EC50) was determined as 8.7 µM. The “effective dose, morphological protection from Aβ42 intoxication” value in data set [7] (morphological observations) was found to be 10 μM. Further, in data set [7] (vs parent compound 1), the “increase of neuroprotective potency relative to 1” value is recorded as 5.4 fold. Moreover, the cytotoxicity entry with SH-SY5Y cells is “no observable cytotoxicity”.

With `O=C([O-])[O-].[Li+].[Li+]` [lithium carbonate], the IC50 on GSK-3β [8] was 2000 µM.

The term IC50 denotes the point on the concentration scale where inhibition reaches its midpoint. By inhibition is commonly meant the relative decrease from the control value, in per cent. By EC50 is commonly meant the midpoint of the concentration-response curve.
